# Test results: patent publication US20120129843A1, “PYRIDYL-THIAZOLYL INHIBITORS OF PRO-MATRIX METALLOPROTEINASE ACTIVATION” (priority 2010, published 2012)
# Where a name gives a salt, the structure may show the parent alone.
# How the values were obtained:
# [1] = molecular target: T1, proMMP9(20-445;ΔFnII) (SEQ ID NO:6) (Homo sapiens, UniProt P14780, DEL216-390); test: ThermoFluor binding assay with proMMP9(20-445;ΔFnII)
# T1 construct: start methionine (N); made in house; host or cells: E. coli BL21(DE3) RIL
# T1 sequence (P14780 with tags, fused parts or gaps DEL216-390): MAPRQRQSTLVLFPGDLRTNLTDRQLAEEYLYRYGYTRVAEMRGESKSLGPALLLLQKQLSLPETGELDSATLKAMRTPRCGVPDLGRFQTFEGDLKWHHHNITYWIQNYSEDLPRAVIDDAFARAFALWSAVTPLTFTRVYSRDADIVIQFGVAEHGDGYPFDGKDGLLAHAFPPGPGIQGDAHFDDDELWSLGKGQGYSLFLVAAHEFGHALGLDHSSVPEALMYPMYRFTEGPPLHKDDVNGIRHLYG
# Description: The ThermoFluor® (TF) assay is a 384-well plate-based binding assay that measures thermal stability of proteins (Biomol Screen 2001, 6, 429-40; Biochemistry 2005, 44, 5258-66). The experiments were carried out using instruments available from Johnson & Johnson Pharmaceutical Research & Development, LLC. TF dye used in all experiments was […] (1,8-ANS) (Invitrogen: A-47).
# Compounds were arranged in a pre-dispensed plate (Greiner Bio-one: 781280), wherein compounds were serially diluted in 100% DMSO across 11 columns within a series. Columns 12 and 24 were used as DMSO reference and contained no compound. For multiple compound concentration-response experiments, the compound aliquots ([…]) were robotically predispensed directly into black 384-well polypropylene PCR microplates (Abgene: TF-0384/k) using a Cartesian Hummingbird liquid handler (DigiLab, Holliston, Mass.). Following compound dispense, protein and dye solutions were added to achieve the final assay volume of 3 μL. The assay solutions were overlayed with 1 μL of silicone oil (Fluka, type DC 200: 85411) to prevent evaporation.
# Assay plates were robotically loaded onto a thermostatically controlled PCR-type thermal block and then heated from 40 to 90° C. at a ramp-rate of 1° C./min for all experiments. Fluorescence was measured by continuous illumination with UV light (Hamamatsu LC6) supplied via fiber optics and filtered through a band-pass filter (380-400 nm; >60D cutoff). Fluorescence emission of the entire 384-well plate was detected by measuring light intensity using a CCD camera (Sensys, Roper Scientific) filtered to detect 500±25 nm, resulting in simultaneous and independent readings of all 384 wells. A single image with 20-sec exposure time was collected at each temperature, and the sum of the pixel intensity in a given area of the assay plate was recorded vs temperature and fit to standard equations to yield the Tm (J Biomol Screen 2001, 6, 429-40).
# Thermodynamic parameters necessary for fitting compound binding for each proMMP were estimated by differential scanning calorimetry (DSC) and from ThermoFluor® data. The heat capacity of unfolding for each protein was estimated from the molecular weight and from ThermoFluor® dosing data.
# ThermoFluor® with proMMP9(20-445;ΔFnII) (SEQ ID NO:6)
# The protein sample preparations included a desalting buffer exchange step via a PD-10 gravity column (GE Healthcare). The desalting buffer exchange was performed prior to diluting the protein to the final assay concentration of 2.8 μM proMMP9(20-445;ΔFnII) (SEQ ID NO:6). The concentration of proMMP9(20-445;ΔFnII) (SEQ ID NO:6) was determined spectrophotometrically based on a calculated extinction coefficient of ε280=39880 M^−1cm^−1, a calculated molecular weight of 28.2 kDa, and calculated pI of 5.5. ThermoFluor® reference conditions were define as follows: 80 μg/mL (2.8 μM) proMMP9(20-445;ΔFnII) (SEQ ID NO:6), 50 μM 1,8-ANS, pH 7.0 Buffer (50 mM HEPES pH 7.0, 100 mM NaCl, 0.001% Tween-20, 2.5 mM MgCl2, 300 μM CaCl2). The thermodynamic parameters for proMMP9(20-445;ΔFnII) (SEQ ID NO:6) are as follows: Tm (° C.)=72 (+/−0.1), ΔUH(Tm) (cal mol^−1)=160000(+/−5000), ΔUS(Tm) (cal mol^−1 K^−1)=434, ΔUCp (cal mol^−1 K^−1)=2400.
# [2] = molecular target: T2, full-length proMMP9(1-707) (SEQ ID NO:1), activation by catalytic MMP3 (Homo sapiens, UniProt P14780, R574P); test: proMMP9/MMP3 P126 Activation Assay; assay type: biochemical
# T2 construct: made in house; host or cells: HEK293 (proMMP9, secreted); E. coli (MMP3)
# Description: proMMP9/MMP3 P126 Activation Assay
# The reaction volume was 50 μL. […] Reactivity of residual MMP3 towards P-126 substrate was minimal under these conditions.
# T2 sequence (P14780 20-707 R574P): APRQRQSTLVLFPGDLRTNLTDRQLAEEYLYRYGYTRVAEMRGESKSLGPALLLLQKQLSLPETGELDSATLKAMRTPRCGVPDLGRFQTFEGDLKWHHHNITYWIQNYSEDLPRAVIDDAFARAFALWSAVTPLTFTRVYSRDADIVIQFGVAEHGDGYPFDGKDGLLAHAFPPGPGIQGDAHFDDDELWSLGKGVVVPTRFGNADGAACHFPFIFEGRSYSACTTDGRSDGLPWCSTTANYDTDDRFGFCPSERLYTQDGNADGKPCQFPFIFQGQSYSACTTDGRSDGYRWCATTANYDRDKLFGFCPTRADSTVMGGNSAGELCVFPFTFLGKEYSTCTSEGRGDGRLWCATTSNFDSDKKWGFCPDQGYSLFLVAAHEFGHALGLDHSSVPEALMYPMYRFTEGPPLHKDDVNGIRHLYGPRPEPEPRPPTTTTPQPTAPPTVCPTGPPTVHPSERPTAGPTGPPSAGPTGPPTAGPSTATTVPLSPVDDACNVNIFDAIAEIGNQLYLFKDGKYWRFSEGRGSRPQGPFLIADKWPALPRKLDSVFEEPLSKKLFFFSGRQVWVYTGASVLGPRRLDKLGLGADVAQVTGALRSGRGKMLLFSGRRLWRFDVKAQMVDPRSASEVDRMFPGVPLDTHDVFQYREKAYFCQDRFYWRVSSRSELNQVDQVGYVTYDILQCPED
Kd [1] [nM],IC50 [2] [nM],Structure (SMILES)
360,~2000,"CCOC(=O)CCNC(=O)c1ccc(-c2csc(Nc3cc(S(N)(=O)=O)ccc3OC(C)C)n2)cn1 [Example 87, Ethyl 3-(5-(2-((2-isopropoxy-5-sulfamoylphenyl)amino)thiazol-4-yl)picolinamido)propanoate.TFA]"
260,330,"CC(C)Oc1ccc(S(N)(=O)=O)cc1Nc1nc(-c2ccc(C(=O)NC3CCN(C(C)C)CC3)nc2)cs1 [Example 88, 5-(2-((2-Isopropoxy-5-sulfamoylphenyl)amino)thiazol-4-yl)-N-(1-isopropylpiperidin-4-yl)picolinamide.TFA]"
360,350,"CC(C)Oc1ccc(S(N)(=O)=O)cc1Nc1nc(-c2ccc(C(=O)NC3CCCN(C)C3)nc2)cs1 (stereo not drawn) [Example 89, 5-(2-((2-Isopropoxy-5-sulfamoylphenyl)amino)thiazol-4-yl)-N-(1-methylpiperidin-3-yl)picolinamide.TFA]"
970,1700,"COCCNC(=O)c1ccc(-c2csc(Nc3cc(S(N)(=O)=O)ccc3OC(C)C)n2)cn1 [Example 90, 5-(2-((2-Isopropoxy-5-sulfamoylphenyl)amino)thiazol-4-yl)-N-(2-methoxyethyl)picolinamide.TFA]"
2400,640,"CC(C)Oc1ccc(S(N)(=O)=O)cc1Nc1nc(-c2ccc(C(=O)NCC3CCOCC3)nc2)cs1 [Example 91, 5-(2-((2-Isopropoxy-5-sulfamoylphenyl)amino)thiazol-4-yl)-N-((tetrahydro-2H-pyran-4-yl)methyl)picolinamide.TFA]"
450,230,"COCCCN(C)c1ccc(-c2csc(Nc3cc(S(N)(=O)=O)ccc3OC(C)C)n2)cn1 [Example 92, 4-Isopropoxy-3-((4-(6-((3-methoxypropyl)(methyl)amino)pyridin-3-yl)thiazol-2-yl)amino)benzenesulfonamide.TFA]"
1900,590,"CC(C)Oc1ccc(S(N)(=O)=O)cc1Nc1nc(-c2ccc(C(=O)NC3CCOCC3)nc2)cs1 [Example 96, 5-(2-((2-Isopropoxy-5-sulfamoylphenyl)amino)thiazol-4-yl)-N-(tetrahydro-2H-pyran-4-yl)picolinamide.TFA]"

# More lines, now with the values behind:
Structure (SMILES),Kd [1] [nM],IC50 [2] [nM]
"COCCN(C)c1ccc(-c2csc(Nc3cc(S(N)(=O)=O)ccc3OC(C)C)n2)cn1 [Example 74, 4-Isopropoxy-3-((4-(6-((2-methoxyethyl)(methyl)amino)pyridin-3-yl)thiazol-2-yl)amino)benzenesulfonamide.TFA]",170,160
"CC(C)Oc1ccc(S(N)(=O)=O)cc1Nc1nc(-c2ccc(N(C)CCO)nc2)cs1 [Example 75, 3-((4-(6-((2-Hydroxyethyl)(methyl)amino)pyridin-3-yl)thiazol-2-yl)amino)-4-isopropoxybenzenesulfonamide.TFA]",280,110
"CC(C)Oc1ccc(S(N)(=O)=O)cc1Nc1nc(-c2ccc(N3CCCCC3)nc2)cs1 [Example 76, 4-Isopropoxy-3-((4-(6-(piperidin-1-yl)pyridin-3-yl)thiazol-2-yl)amino)benzenesulfonamide.TFA]",240,> 20000
"CC1CCN(c2ccc(-c3csc(Nc4cc(S(N)(=O)=O)ccc4OC(C)C)n3)cn2)CC1 [Example 77, 4-Isopropoxy-3-((4-(6-(4-methylpiperidin-1-yl)pyridin-3-yl)thiazol-2-yl)amino)benzenesulfonamide.TFA]",1900,> 20000
"COC1CCN(c2ccc(-c3csc(Nc4cc(S(N)(=O)=O)ccc4OC(C)C)n3)cn2)CC1 [Example 78, 4-Isopropoxy-3-((4-(6-(4-methoxypiperidin-1-yl)pyridin-3-yl)thiazol-2-yl)amino)benzenesulfonamide.TFA]",340,~300
"CC(C)Oc1ccc(S(N)(=O)=O)cc1Nc1nc(-c2ccc(N3CCC(CO)CC3)nc2)cs1 [Example 79, 3-((4-(6-(4-(Hydroxymethyl)piperidin-1-yl)pyridin-3-yl)thiazol-2-yl)amino)-4-isopropoxybenzenesulfonamide.TFA]",150,340
"CC(C)Oc1ccc(S(N)(=O)=O)cc1Nc1nc(-c2ccc(N3CCNC(C(F)(F)F)C3)nc2)cs1 (stereo not drawn) [Example 80, 4-Isopropoxy-3-((4-(6-(3-(trifluoromethyl)piperazin-1-yl)pyridin-3-yl)thiazol-2-yl)amino)benzenesulfonamide.TFA]",150,360
"CC(C)Oc1ccc(S(N)(=O)=O)cc1Nc1nc(-c2ccc(C3CCNCC3)nc2)cs1 [Example 81, 4-Isopropoxy-3-((4-(6-(piperidin-4-yl)pyridin-3-yl)thiazol-2-yl)amino)benzenesulfonamide.TFA]",130,130
"CC(C)Oc1ccc(S(N)(=O)=O)cc1Nc1nc(-c2ccc(N3CCn4ccnc4C3)nc2)cs1 [Example 82, 3-((4-(6-(5,6-Dihydroimidazo[1,2-a]pyrazin-7(8H)-yl)pyridin-3-yl)thiazol-2-yl)amino)-4-isopropoxybenzenesulfonamide.TFA]",99,370
"CC(C)Oc1ccc(S(N)(=O)=O)cc1Nc1nc(-c2ccc(N3CCN(S(C)(=O)=O)CC3)nc2)cs1 [Example 83, 4-Isopropoxy-3-((4-(6-(4-(methylsulfonyl)piperazin-1-yl)pyridin-3-yl)thiazol-2-yl)amino)benzenesulfonamide.TFA]",310,140
"CC(C)Oc1ccc(S(N)(=O)=O)cc1Nc1nc(-c2ccc(C(=O)NC3CN4CCC3CC4)nc2)cs1 (stereo not drawn) [Example 86, 5-(2-((2-Isopropoxy-5-sulfamoylphenyl)amino)thiazol-4-yl)-N-(1-azabicyclo[2.2.2]octan-3-yl)picolinamide.TFA]",460,400
